The values that follow come from patent US7531519B2, “Polygalatenosides and use thereof as an antidepressant agent” (Medical and Pharmaceutical Industry Technology and …, priority 2006, dated 2009).

One may read the IC50 as the concentration that inhibits the measured activity by half.

The target of the assay is T1, human norepinephrine transporter (Homo sapiens, UniProt P23975).
T1 construct: expressed in transfected cells; host or cells: MDCK (dog kidney) cells, stably transfected; total cell membranes
T1 sequence (P23975 whole entry): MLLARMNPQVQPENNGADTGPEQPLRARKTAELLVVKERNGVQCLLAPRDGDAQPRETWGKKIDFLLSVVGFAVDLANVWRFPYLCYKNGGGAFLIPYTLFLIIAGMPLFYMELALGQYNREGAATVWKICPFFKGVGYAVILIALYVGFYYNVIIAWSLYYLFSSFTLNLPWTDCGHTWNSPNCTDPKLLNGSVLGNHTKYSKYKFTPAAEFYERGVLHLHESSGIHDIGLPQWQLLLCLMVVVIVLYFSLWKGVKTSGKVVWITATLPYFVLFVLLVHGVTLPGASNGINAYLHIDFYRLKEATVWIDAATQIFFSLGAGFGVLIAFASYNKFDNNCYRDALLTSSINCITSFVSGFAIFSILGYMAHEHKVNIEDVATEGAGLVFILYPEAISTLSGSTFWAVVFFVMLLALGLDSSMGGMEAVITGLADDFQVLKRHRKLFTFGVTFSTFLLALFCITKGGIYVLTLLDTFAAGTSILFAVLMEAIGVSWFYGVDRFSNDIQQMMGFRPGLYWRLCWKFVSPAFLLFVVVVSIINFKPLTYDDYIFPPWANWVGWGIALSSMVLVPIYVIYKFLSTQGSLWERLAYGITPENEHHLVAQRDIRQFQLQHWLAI
The assay can be described thus: [125I]RTI-55 membrane binding assay. The settings on record: for IC50: membranes of MDCK cells transfected with human NET, 0.2 nM [125I]RTI-55, 4° C., 3 h, read-out: IC50, inhibition of [125I]RTI-55 binding to norepinephrine transporter; for inhibition of [125I]RTI-55 binding to norepinephrine transporter (result in words): qualitative statement. The protocol:
Membrane Binding Assay. Membranes from dog kidney MDCK cells, which stably transfected with the human norepinephrine transporter, were used. Total cell membranes were prepared from transfected cells grown to confluence in 500 cm^2 tissue culture dishes. Cells were scraped into centrifuge tube and pelleted at 900 g and 4° C. for 10 min. The pellets were resuspended in modified Tris-HCl buffer (50 mM Tris-HCl, 100 mM NaCl, 1 μM leupetin, 10 μM PMSF; pH 7.4), and centrifuged at 17000 g and 4° C. for 30 min. Then, the pellets were resuspended, homogenized with a glass homogenizer with a Teflon pestle and centrifuged at 17000 g and 4° C. for 90 minutes. Pellets were collected and resuspended in modified Tris-HCl buffer. Protein concentrations were determined using BCA protein assay reagent (Pierce, Rockford). […] The binding was terminated by rapid vacuum filtration over Whatman GF/B filters soaked in 0.3% polyethylineimine followed by three rapid 1 mL washes in ice-cold buffer. Bound radioactivity was measured by gamma emission spectrometry. Non-specific binding was determined in the presence of 10 μM desipramine and was subtracted from the data in the absence of desipramine to yield specific binding.

Regarding `O=C(OCC1OC(OC2COC(CO)C(O)C2O)C(O)C(O)C1O)c1ccccc1` (stereo not drawn) [Compound 1, 6-O-benzoyl polygolitosyl-(2→1)-α-galactose], the IC50 amounted to 30 µM and the “inhibition of [125I]RTI-55 binding to norepinephrine transporter (result in words)” value is on record as “more potent than the others”.
The like results for `O=C(OC1C(O)C(CO)OC(OC2COC(CO)C(O)C2O)C1O)c1ccccc1` (stereo not drawn) [Compound 2, 3-O-benzoyl-polygolitosyl-(2→1)-α-galactose] were, in that order, 6.04 µM and “more potent than the others”.
